Reference: US20240197682A1, “METHOD FOR TREATING NEUROLOGICAL DISEASES USING SUPRAMOLECULE POLYMER THERAPEUTICS” (The Regents of the University of California, priority 2022, published 2024)
Read-outs that look alike come from different tables or passages of the source.

Assay: Parallel Artificial Membrane Permeability Assay (PAMPA)
Assay type: in vitro ADME
Details: for PAMPA: P_app: 200 uM test compound, 4 hr; for Papp at 4 hr, 200 uM: PAMPA, read-out: PAMPA: P_app
Procedure: 5 uL of 1% lecithin (VWR 0579) dissolved in n-dodecane (Sigma Aldrich D221104) was applied to each well of a MultiScreen IP PAMPA filter plate (Millipore MAIPSWU10) and allowed to equilibrate for 5 minutes. 300 uL of PBS was added to the acceptor plate and 150 uL of 200 uM test compound dissolved in PBS and 30% ethanol was added to the donor wells before incubating the donor plate in the acceptor plate for 4 hr at 500 rpm. 100 uL was sampled from the donor and acceptor wells and the concentrations were measured by liquid chromatography-mass spectrometry (SCIEX 4500) or UV-VIS plate reader (BMG).

Compound	PAMPA: P_app (pH 5.0) [×10e−6 cm/sec]	PAMPA: P_app (pH 7.4) [×10e−6 cm/sec]	Papp at 4 hr, 200 uM (pH 5.0, 200 uM test compound) [×10⁻⁶ cm/s]	Papp at 4 hr, 200 uM (pH 7.4, 200 uM test compound) [×10⁻⁶ cm/s]
CNc1nc(=O)n(-c2nc(-c3cccc(Cl)c3)oc2-c2ccc(Cl)c(F)c2)cc1F [Compound 1]	>50.0	>50.0	–	–
CNC(=O)c1cc2c(NC(=O)C3CC3)nn(-c3ccccc3)c2s1 [Compound 3, 3-(cyclopropanecarboxamido)-N-methyl-1-phenyl-1H-thieno[2,3-c]pyrazole-5-carboxamide]	–	>50.0	> 50	–
CNC(=O)c1ncc2c(-c3ccnc(C(C)(F)F)n3)nn(-c3ccc(Cl)cc3)c2n1 [Compound 22, 1-(4-chlorophenyl)-3-(2-(1,1-difluoroethyl)pyrimidin-4-yl)-N-methyl-1H-pyrazolo[3,4-d]pyrimidine-6-carboxamide]	–	>50.0	> 50	–
CNC(=O)c1cc2c(C3=CCCC3)nn(-c3ccccc3)c2s1 [Compound 31, 3-(cyclopent-1-en-1-yl)-N-methyl-1-phenyl-1H-thieno[2,3-c]pyrazole-5-carboxamide]	–	–	14.9	16.7
COC(=O)c1cc2c(-c3ccccc3)nn(-c3ccccc3)c2[nH]1 [Compound 34, methyl 1,3-diphenyl-1,6-dihydropyrrolo[2,3-c]pyrazole-5-carboxylate]	–	–	24.4	14.3
CNC(=O)c1ncc2c(-c3ccnc(C(F)(F)F)n3)nn(-c3ccc(Cl)cc3)c2n1 [Compound 37, 1-(4-chlorophenyl)-N-methyl-3-(2-(trifluoromethyl)pyrimidin-4-yl)-1H-pyrazolo[3,4-d]pyrimidine-6-carboxamide]	–	>50.0	> 50	–
CNC(=O)c1cc2c(-c3ccccc3)nn(-c3ccccc3)c2o1 [Compound 38, N-methyl-1,3-diphenyl-1H-furo[2,3-c]pyrazole-5-carboxamide]	–	–	46.1	> 50
CC(=O)Nc1ncc2c(-c3ccccc3)nn(Cc3cccnc3)c2n1 [Compound 42, N-(3-phenyl-1-(pyridin-3-ylmethyl)-1H-pyrazolo[3,4-d]pyrimidin-6-yl)acetamide]	–	–	46.7	37
Cc1cn(-c2nc(-c3ccccc3)oc2-c2ccccc2)c(=O)nc1OCCO [Compound 77, 1-(2,5-diphenyl-1,3-oxazol-4-yl)-4-(2-hydroxyethoxy)-5-methyl-1,2-dihydropyrimidin-2-one]	–	>50.0	> 50	–
CNc1nc(=O)n(-c2nc(-c3cccc(C)c3)oc2-c2ccc(Cl)c(F)c2)cc1F [Compound 83, 1-(5-(4-chloro-3-fluorophenyl)-2-(m-tolyl)oxazol-4-yl)-5-fluoro-4-(methylamino)pyrimidin-2(1H)-one]	–	–	40.3	> 50
CC1CCc2cn(-c3nc(-c4ccccc4)oc3-c3ccc(F)cc3)c(=O)nc2O1 (stereo not shown) [Compound 92, 3-(5-(4-fluorophenyl)-2-phenyloxazol-4-yl)-7-methyl-3,5,6,7-tetrahydro-2H-pyrano[2,3-d]pyrimidin-2-one]	–	–	–	1.46
COc1nccc2cc(-c3nc(-n4ccc5cccnc5c4=O)c(-c4ccc(C(F)(F)F)cc4)o3)ccc12 [Compound 124, 7-(2-(1-methoxyisoquinolin-6-yl)-5-(4-(trifluoromethyl)phenyl)oxazol-4-yl)-1,7-naphthyridin-8(7H)-one]	–	–	–	5.82
O=c1nc2c(ccn2C2CC2)cn1-c1nc(-c2cnc(C3CC3)nc2)oc1-c1ccc(Cl)c(F)c1 [Compound 186, 3-[5-(4-chloro-3-fluorophenyl)-2-(2-cyclopropylpyrimidin-5-yl)-1,3-oxazol-4-yl]-7-cyclopropyl-2H,3H,7H-pyrrolo[2,3-d]pyrimidin-2-one]	–	–	–	6.27
O=c1nc2c(ccn2C2CC2)cn1-c1nc(-c2ccc(F)cc2)oc1-c1ccccc1 [Compound 213, 7-cyclopropyl-3-(2-(4-fluorophenyl)-5-phenyloxazol-4-yl)-3,7-dihydro-2H-pyrrolo[2,3-d]pyrimidin-2-one]	–	–	36	48
O=c1nc2c(ccn2C2CC2)cn1-c1nc(-c2ccnc(C3CC3)n2)oc1-c1ccc(F)cc1 [Compound 216, 7-cyclopropyl-3-[2-(2-cyclopropylpyrimidin-4-yl)-5-(4-fluorophenyl)-1,3-oxazol-4-yl]-2H,3H,7H-pyrrolo[2,3-d]pyrimidin-2-one]	–	–	–	1.63
O=c1nc2c(ccn2C(F)(F)F)cn1-c1nc(N2CCCC2)oc1-c1ccc(F)cc1 [Compound 238, 3-[5-(4-fluorophenyl)-2-(pyrrolidin-1-yl)-1,3-oxazol-4-yl]-7-(trifluoromethyl)-2H,3H,7H-pyrrolo[2,3-d]pyrimidin-2-one]	–	–	–	2.28
O=c1nc2c(ccn2C(F)(F)F)cn1-c1nc(N2CC(F)C2)oc1-c1ccc(F)cc1 [Compound 239]	–	0.664	–	–
CNC(=O)c1ncc2c(-c3ccccc3)nn(Cc3cccc(F)c3)c2n1 [Compound 249]	47.1	>50	–	–
CNC(=O)c1ncc2c(-c3ccc(F)cc3)nn(Cc3ccccc3)c2n1 [Compound 250]	>50	>50	–	–
CNC(=O)c1ncc2c(-c3cc(F)cc(F)c3)nn(Cc3ccccc3)c2n1 [Compound 252]	>50	>50	–	–
CNC(=O)c1cnc2c(-c3cc(F)cc(F)c3)nn(Cc3ccccc3)c2n1 [Compound 262, 1-benzyl-3-(3,5-difluorophenyl)-N-methyl-1H-pyrazolo[3,4-b]pyrazine-6-carboxamide]	–	–	1.2	2
CC(=O)Nc1ncc2c(-c3ccc(F)cc3)nn(Cc3ccccc3)c2n1 [Compound 263, N-(1-benzyl-3-(4-fluorophenyl)-1H-pyrazolo[3,4-d]pyrimidin-6-yl)acetamide]	–	–	17.9	20.7
CC(=O)Nc1ncc2c(-c3ccccc3)nn(Cc3ccccc3)c2n1 [Compound 264]	27.1	26.4	–	–
CC(=O)Nc1ncc2c(-c3ccccc3)nn(-c3ccccc3)c2n1 [Compound 272, N-(1,3-diphenyl-1H-pyrazolo[3,4-d]pyrimidin-6-yl)acetamide]	–	–	8.8	8.9
CCC(=O)Nc1ncc2c(-c3ccccc3)nn(-c3ccccc3)c2n1 [Compound 273]	2.8	3.6	–	–
O=C(Nc1ncc2c(-c3ccccc3)nn(-c3ccccc3)c2n1)C1CC1 [Compound 275]	0.8	1.3	–	–
CC(=O)Nc1ncc2c(-c3ccccc3)nn(-c3cccnc3)c2n1 [Compound 276, N-(3-phenyl-1-(pyridin-3-yl)-1H-pyrazolo[3,4-d]pyrimidin-6-yl)acetamide]	–	>50	> 50	–
CCn1nc(-c2ccccc2)c2cnc(NC(C)=O)nc21 [Compound 277]	>50	>50	–	–
CC(=O)Nc1ncc2c(-c3ccccc3)nn(Cc3ccccn3)c2n1 [Compound 278]	>50	>50	–	–
